Reference: US6939541B2, “Cloning, overexpression and therapeutic use of bioactive histidine ammonia lyase” (priority 2000, dated 2005)

Tests used:
[1] = biological target: Corynebacteriaceae histidine ammonia lyase (HAL) (Glutamicibacter halophytocola, UniProt A0A5B8IKQ6, DEL117-117/DEL409-409/N172D/R434P/T116S); assay: biochemical; format: biochemical, bacterium of the family Corynebacteriaceae; conditions: for IC50: inhibition not complete, read-out: concentration required to reduce the activity by half
[2] = biological target: histidine ammonia lyase isolated from Achromobacter liquidum; conditions: Shibatani et al. 1975; cited from earlier work
[3] = test system: Herpes Simplex Virus (HSV); assay: HSV plaque assay in VERO cells; format: cell-based
Method: HAL was tested for its anti-viral activity against a variety of infectious viruses in vitro. Effectiveness against Herpes Simplex Virus (HSV) was assayed using the following method. Confluent VERO cells from a T-175 flask are tyrpsinized and split into as many T-25 flasks as the experiment requires. The cells are grown in RPMI-1640 with 10% newborn calf serum-heat inactivated, and L-glutamine. After cells have grown to confluence remove the media and add 0.5 ml of diluted virus (make a series of 1:5 dilution). Dilution of virus is prepared in RPMI-1640 with 2% NCS. The cells are then incubated for 1 hour at 37° C. and then 5 ml of RPMI-1640 with 2% NCS with or without the test compounds is added and incubation is allowed to continue for 1 day. After 24 hours the flasks are sealed with parafilm and frozen at −70° C. The cells are then allowed to thaw at RT to lyse dead intact cells, releasing virus. The viral suspension is then centrifuged to remove cell debris. The viral dilution that caused complete lysis will be used in the plaque assay. The plaque assay is set up by trypsinizing cells from a T-75 and resuspending the cells in RPMI-1640 with 10% NCS and poured into 6-well plate at 2 ml/well. The cells are incubated overnight at 37° C. The media is then removed by suction and 0.2 ml of the viral dilution is added and allowed to incubate for one hour. During this hour the agar is prepared and stored at 41° C. to prevent hardening. The agar concentrations are as follows: ½ vol. 2×BME (Gibco), 2% Pen/Strep, 2% NCS, and 1% agar. After the hour incubation 2 ml of the BME/agar is carefully added to the wells, so as not to disturb the cell monolayer. The plate is left at RT for twenty to thirty minutes to allow the agar to harden, and then the cells are incubated for 48 hours at 37° C. The cells are then stained used BME/agar containing neutral red. The BME/agar is prepared as before with the addition of neutral red stain (Gibco) to a final concentration of 5%. […] Plaques are then counted and the cells fixed for a permanent record.

[4] = biological target: T1, Streptomyces griseus histidine ammonia lyase (Streptomyces griseus, UniProt P24221); assay: Inhibition of Streptomyces griseus histidine ammonia lyase; format: biochemical; conditions: equal molar concentration to histidine
Description: HAL has a significant advantage over other histidine ammonia lyases in that it is relatively resistant to inhibition by L-histidinol. L-histidinol is a histidine analog. Because L-histidinol acts as a competitive inhibitor it must be present in high concentrations to have an effect on histidine dependent reactions. Using HAL to reduce the overall histidine pool would therefore greatly increase the effectiveness of L-histidinol. […] Because the Corynebacteriaceae histidine ammonia lyase (HAL) is not inhibited by L-histidinol at therapeutic L-histidinol levels it has a great advantage over other histidine ammonia lyases. […] However, with HAL 20% of activity still is retained when L-histidinol is present at 10 times the concentration of L-histidine.

[5] = test system: Respiratory Syncytial Virus (RSV); assay: RSV plaque assay in Hep2 cells; format: cell-based; conditions: L-histidinol 3 mM
Method: Another successful study has been with Respiratory Syncytial Virus (RSV). RSV is another highly infectious disease causing agent. It causes lower respiratory-tract infections such as bronchitis and pneumonia in infancy and early childhood, with nearly 50% of infants suffering from an RSV infection during their first winter. Experiments were performed in tissue culture using the RSV Plaque Assay. The RSV plaque assay is performed similarly to the HSV assay. When performing the RSV assay Hep2 cells are used to propagate the RSV and the cells are grown in EMEM media with 2% FBS, L-glutamine and Antibiotic-Antimycotic. The virus stock is diluted in the medium and added to each well with or without the desired testing compound. The plates are incubated for 2 hours at 37° C. and the virus is removed. 0.5% agarose is added to the media and incubated for 5 days at 37° C. The plates are then fixed with 10% formalin and stained with crystal violet.

[6] = biological target: T1, Streptomyces griseus histidine ammonia lyase; conditions: Wu et al.; cited from earlier work

Chain of Corynebacteriaceae histidine ammonia lyase (HAL) (A0A5B8IKQ6 entry or part of it T116S/DEL117-117/N172D/DEL409-409/R434P): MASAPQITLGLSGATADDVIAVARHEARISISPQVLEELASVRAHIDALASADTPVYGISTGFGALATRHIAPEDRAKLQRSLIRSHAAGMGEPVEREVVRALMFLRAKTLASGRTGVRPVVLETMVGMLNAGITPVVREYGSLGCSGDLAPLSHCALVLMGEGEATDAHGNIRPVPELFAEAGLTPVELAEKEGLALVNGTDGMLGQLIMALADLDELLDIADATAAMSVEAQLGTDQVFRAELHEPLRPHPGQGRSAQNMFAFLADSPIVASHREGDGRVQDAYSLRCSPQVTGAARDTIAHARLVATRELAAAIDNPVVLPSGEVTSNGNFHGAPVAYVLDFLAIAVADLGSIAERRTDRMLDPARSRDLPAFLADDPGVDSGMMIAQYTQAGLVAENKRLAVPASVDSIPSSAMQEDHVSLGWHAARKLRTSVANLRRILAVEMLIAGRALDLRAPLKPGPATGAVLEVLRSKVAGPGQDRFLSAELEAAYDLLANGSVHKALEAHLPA
T1 sequence (P24221 whole entry): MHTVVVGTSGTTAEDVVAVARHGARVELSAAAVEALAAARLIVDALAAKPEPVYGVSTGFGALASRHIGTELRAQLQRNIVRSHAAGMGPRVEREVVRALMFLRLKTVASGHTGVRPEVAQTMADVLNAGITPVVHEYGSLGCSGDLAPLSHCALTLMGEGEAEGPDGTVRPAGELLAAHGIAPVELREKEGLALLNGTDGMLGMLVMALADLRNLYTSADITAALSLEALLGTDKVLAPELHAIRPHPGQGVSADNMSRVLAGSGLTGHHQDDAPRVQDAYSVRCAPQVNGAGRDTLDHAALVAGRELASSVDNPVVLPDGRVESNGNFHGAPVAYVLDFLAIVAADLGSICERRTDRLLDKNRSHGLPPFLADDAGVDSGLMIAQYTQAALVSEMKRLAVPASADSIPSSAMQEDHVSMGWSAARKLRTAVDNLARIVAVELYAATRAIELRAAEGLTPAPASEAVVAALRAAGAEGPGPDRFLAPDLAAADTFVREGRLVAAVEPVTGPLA

Q: Which IC50 [1] does the source give for `N[C@@H](CCC(=O)N[C@@H](CS)C(=O)NCC(=O)O)C(=O)O` [reduced glutathione] here?
A: 15 mM

Q: For `O=C(O)CN(CCN(CC(=O)O)CC(=O)O)CC(=O)O` [EDTA], which “inhibition of the HAL reaction” value ([1]; concentrations as low as 1 mM) is on record?
A: completely inhibit

Q: And the “reversibility of the inhibition” value ([1]; presence of Mn^2+ at 1×10^5 M)?
A: reversible

Q: For `N[C@H](CO)Cc1c[nH]cn1` [L-histidinol], which Ki [1] is on record?
A: 24.3 to 33.4 mM

Q: What about the “inhibition of HAL” value ([1]; therapeutic L-histidinol levels) of the same compound?
A: not inhibited

Q: And the Ki [2]?
A: 4.58 mM

Q: And the “inhibition of HSV” value ([3]; L-histidinol 0.1 mM)?
A: no inhibition

Q: And the “inhibition of HSV” value ([3]; L-histidinol 0.5 mM)?
A: no inhibition

Q: And the “inhibition of HSV” value ([3]; L-histidinol 1 mM)?
A: 5 fold

Q: And the “inhibition of the enzyme” value [4]?
A: completely inhibit

Q: What about the “inhibition of RSV plaque numbers” value [5] of the same compound?
A: no inhibition

Q: For L-histidinol phosphate, which Ki [6] is on record?
A: 0.27 mM

Q: With `O[C@@H](CS)[C@@H](O)CS` [DTT] as the compound, how does the IC50 [1] read?
A: 15 mM
